From patent publication US20230072683A1, “PYRIDO-PYRIMIDIN DERIVATIVES AND PHARMACEUTICAL COMPOSITION, FOR USE IN PREVENTING OR TREATING PI3 KINASE RELATED DISEASES, COMPRISING SAME AS ACTIVE INGREDIENT” (BORYUNG PHARMACEUTICAL CO., LTD, priority 2019, published 2023) come the findings set out here.

The target of one assay is DNA-PK(h) (Homo sapiens, UniProt P78527). Put plainly: Evaluation of inhibitory activity against DNA-PK (HTRF kinase assay, GST-cMyc-p53 substrate). It is filed as biochemical. Conditions: for inhibition at 0.01 µM: compound concentration 0.01 μM, read-out: EXP_VALUE(% Inhibition) DNA-PK(h) 0.01 μM; for inhibition at 0.1 µM: read-out: EXP_VALUE(% Inhibition) DNA-PK(h) 0.1 μM. Summed up: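 p53 Ser15 phosphorylation by human DNA-PK was measured by time-resolved FRET ratio (665/620 nm ×10000) using Eu-labelled anti-phospho-Ser15 and d2 anti-GST antibodies. Substrate GST-cMyc-p53 at 50 μM; Mg/ATP-initiated, 30 min at room temperature, EDTA stop.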

For assay [1], the target named is PI3K-δ (PI3K(p1108/p857) (h)) (Homo sapiens, UniProt O00329). Description: Evaluation of inhibitory activity against PI3K-δ (HTRF kinase assay). It is filed as biochemical. Particulars: for inhibition at 0.01 µM: compound concentration 0.01 μM, read-out: EXP_VALUE(% Inhibition) PI3K-δ 0.01 μM; for inhibition at 0.1 µM: read-out: EXP_VALUE(% Inhibition) PI3K-δ 0.1 μM. The essentials:
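HTRF read-out (665/620 nm ratio ×10000) used Eu-labelled anti-GST, GST-tagged GRP1 PH domain and streptavidin-allophycocyanin after EDTA/PIP3 stop.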

Where two headings read alike, the source gives them in different places.

Sequence of PI3K-δ (PI3K(p1108/p857) (h)) (O00329 whole entry, the tested form may be a part): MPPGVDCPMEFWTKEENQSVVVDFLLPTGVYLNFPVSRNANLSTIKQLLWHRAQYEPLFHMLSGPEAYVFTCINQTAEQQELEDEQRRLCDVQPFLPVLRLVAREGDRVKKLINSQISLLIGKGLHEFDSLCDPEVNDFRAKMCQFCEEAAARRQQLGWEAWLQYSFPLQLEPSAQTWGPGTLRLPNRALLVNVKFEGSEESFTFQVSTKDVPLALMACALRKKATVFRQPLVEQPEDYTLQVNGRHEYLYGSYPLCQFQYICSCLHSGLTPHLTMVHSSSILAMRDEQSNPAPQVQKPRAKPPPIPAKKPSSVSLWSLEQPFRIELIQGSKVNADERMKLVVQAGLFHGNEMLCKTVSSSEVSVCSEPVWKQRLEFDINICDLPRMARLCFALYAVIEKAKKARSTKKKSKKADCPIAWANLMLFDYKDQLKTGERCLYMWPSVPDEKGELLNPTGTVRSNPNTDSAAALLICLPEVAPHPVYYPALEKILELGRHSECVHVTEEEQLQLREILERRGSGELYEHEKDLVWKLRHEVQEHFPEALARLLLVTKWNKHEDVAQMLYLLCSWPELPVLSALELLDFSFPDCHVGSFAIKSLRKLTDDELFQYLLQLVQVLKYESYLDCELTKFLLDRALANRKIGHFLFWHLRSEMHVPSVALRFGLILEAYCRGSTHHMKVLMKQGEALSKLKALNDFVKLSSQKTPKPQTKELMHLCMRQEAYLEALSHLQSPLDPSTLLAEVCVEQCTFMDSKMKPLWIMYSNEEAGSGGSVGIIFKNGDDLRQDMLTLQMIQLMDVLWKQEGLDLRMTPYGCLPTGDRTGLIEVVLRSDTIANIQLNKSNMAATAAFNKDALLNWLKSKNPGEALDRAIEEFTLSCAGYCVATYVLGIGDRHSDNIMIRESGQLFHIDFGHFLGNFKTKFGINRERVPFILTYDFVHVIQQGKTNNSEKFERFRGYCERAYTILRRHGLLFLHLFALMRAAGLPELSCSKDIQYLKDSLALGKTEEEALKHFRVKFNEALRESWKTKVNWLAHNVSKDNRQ
Sequence of PI3K-δ (PI3K(p1108/p857) (h)) (P27986 whole entry partner, the tested form may be a part): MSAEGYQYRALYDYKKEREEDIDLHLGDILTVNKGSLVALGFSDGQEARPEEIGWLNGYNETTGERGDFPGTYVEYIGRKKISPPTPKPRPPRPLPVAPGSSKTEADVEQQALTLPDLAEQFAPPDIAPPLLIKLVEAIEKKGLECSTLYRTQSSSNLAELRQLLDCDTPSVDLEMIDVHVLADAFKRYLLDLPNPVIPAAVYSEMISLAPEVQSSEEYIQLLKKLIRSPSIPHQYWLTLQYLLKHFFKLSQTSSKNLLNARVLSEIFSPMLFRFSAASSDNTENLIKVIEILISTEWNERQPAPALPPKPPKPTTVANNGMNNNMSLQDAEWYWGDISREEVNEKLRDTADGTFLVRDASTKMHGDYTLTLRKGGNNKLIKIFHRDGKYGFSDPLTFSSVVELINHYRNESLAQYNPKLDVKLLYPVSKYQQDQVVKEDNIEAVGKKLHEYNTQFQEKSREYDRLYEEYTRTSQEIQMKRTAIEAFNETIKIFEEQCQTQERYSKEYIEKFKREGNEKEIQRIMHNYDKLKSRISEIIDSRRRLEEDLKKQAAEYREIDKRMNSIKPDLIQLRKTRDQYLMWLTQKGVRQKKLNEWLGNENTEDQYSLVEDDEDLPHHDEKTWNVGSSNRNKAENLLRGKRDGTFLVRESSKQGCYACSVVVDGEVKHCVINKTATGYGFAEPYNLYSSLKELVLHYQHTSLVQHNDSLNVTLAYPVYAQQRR

On to `C[C@H](Nc1ncnc2[nH]ccc(=O)c12)c1c(Cl)c2cccc(-c3ccnc(N4CCOCC4)c3)c2c(=O)n1-c1ccccc1` [Example 190, (S)-4-((1-(4-chloro-8-(2-morpholinopyridin-4-yl)-1-oxo-2-phenyl-1,2-dihydroisoquinolin-3-yl)ethyl)amino)pyrido[2,3-d]pyrimidin-5(8H)-one], for which the results for the inhibition at 0.01 µM (on DNA-PK(h); in assay [1]) were 85% and 87%, respectively.

In the case of `C[C@H](Nc1ncnc2[nH]ccc(=O)c12)c1c(Cl)c2cccc(-c3cnc(N4CCCCC4)nc3)c2c(=O)n1-c1ccccc1` [Example 224, (S)-4-((1-(4-chloro-1-oxo-2-phenyl-8-(2-(piperidin-1-yl)pyrimidin-5-yl)-1,2-dihydroisoquinolin-3-yl)ethyl)amino)pyrido[2,3-d]pyrimidin-5(8H)-one], the inhibition at 0.01 µM was found to be 19% on DNA-PK(h) and 57% in assay [1].

Consider `C[C@H](Nc1ncnc2[nH]ccc(=O)c12)c1c(Cl)c2cccc(-c3cnc4[nH]ccc4c3)c2c(=O)n1-c1ccccc1` [Example 25, (S)-4-((1-(4-chloro-1-oxo-2-phenyl-8-(1H-pyrrolo[2,3-b]pyridin-5-yl)-1,2-dihydroisoquinolin-3-yl)ethyl)amino)pyrido[2,3-d]pyrimidin-5(8H)-one], for which the inhibition at 0.01 µM at DNA-PK(h) turned out to be 7%; in assay [1], 6%.

`COc1ncc(-c2cccc3c(Cl)c([C@H](C)Nc4ncnc5[nH]ccc(=O)c45)n(-c4ccccc4)c(=O)c23)cn1` [Example 171, (S)-4-((1-(4-chloro-8-(2-methoxypyrimidin-5-yl)-1-oxo-2-phenyl-1,2-dihydroisoquinolin-3-yl)ethyl)amino)pyrido[2,3-d]pyrimidin-5(8H)-one]: the inhibition at 0.01 µM on DNA-PK(h) is 62%; in assay [1], 58%.

`COc1ncc(-c2cccc3c(Cl)c([C@H](C)Nc4ncnc5[nH]ccc(=O)c45)n(-c4ccccc4)c(=O)c23)cc1NS(C)(=O)=O` [Example 225, (S)—N-(5-(4-chloro-1-oxo-3-(1-((5-oxo-5,8-dihydropyrido[2,3-d]pyrimidin-4-yl)amino)ethyl)-2-phenyl-1,2-dihydroisoquinolin-8-yl)-2-methoxypyridin-3-yl)methanesulfonamide]: the results for the inhibition at 0.01 µM (on DNA-PK(h); in assay [1]) were 76% and 74%, respectively.

With `C[C@H](Nc1ncnc2[nH]ccc(=O)c12)c1c(Cl)c2cccc(-c3cccc(CC#N)c3)c2c(=O)n1-c1ccccc1` [Example 91, (S)-2-(3-(4-chloro-1-oxo-3-(1-((5-oxo-5,8-dihydropyrido[2,3-d]pyrimidin-4-yl)amino)ethyl)-2-phenyl-1,2-dihydroisoquinolin-8-yl)phenyl)acetonitrile], the inhibition at 0.01 µM at DNA-PK(h) came out at 77%; in assay [1], 89%. For the same molecule, the inhibition at 0.1 µM came out at 98% on DNA-PK(h) (compound concentration 0.1 μM) and 101% in assay [1] (compound concentration 0.1 μM).

As for `C[C@H](Nc1ncnc2[nH]ccc(=O)c12)c1c(Cl)c2cccc(CO)c2c(=O)n1-c1ccccc1` [Example 355, (S)-4-((1-(4-chloro-8-(hydroxymethyl)-1-oxo-2-phenyl-1,2-dihydroisoquinolin-3-yl)ethyl)amino)pyrido[2,3-d]pyrimidin-5(8H)-one], the inhibition at 0.01 µM at DNA-PK(h) amounted to 47%; in assay [1], 78%.

As to `C[C@H](Nc1ncnc2[nH]ccc(=O)c12)c1c(Cl)c2cccc(-c3cc4ccccc4[nH]3)c2c(=O)n1-c1ccccc1` [Example 380, (S)-4-((1-(4-chloro-8-(1H-indol-2-yl)-1-oxo-2-phenyl-1,2-dihydroisoquinolin-3-yl)ethyl)amino)pyrido[2,3-d]pyrimidin-5(8H)-one], the inhibition at 0.1 µM at DNA-PK(h) (compound at 0.1 μM) was determined as 19%; in assay [1] (compound at 0.1 μM), 76%.

For the molecule `C[C@H](Nc1ncnc2[nH]ccc(=O)c12)c1c(Cl)c2cccc(N3CCN(c4ccccc4O)CC3)c2c(=O)n1-c1ccccc1` [Example 78, (S)-4-((1-(4-chloro-8-(4-(2-hydroxyphenyl)piperazin-1-yl)-1-oxo-2-phenyl-1,2-dihydroisoquinolin-3-yl)ethyl)amino)pyrido[2,3-d]pyrimidin-5(8H)-one], the inhibition at 0.01 µM came out at 18% on DNA-PK(h) and 46% in assay [1]. The values for the inhibition at 0.1 µM (at DNA-PK(h) (compound concentration 0.1 μM); in assay [1] (compound concentration 0.1 μM)) were 56% and 78%, respectively.

As for `C[C@H](Nc1ncnc2[nH]ccc(=O)c12)c1c(Cl)c2cccc(N3Cc4ccccc4C3)c2c(=O)n1-c1ccccc1` [Example 340, (S)-4-((1-(4-chloro-8-(isoindolin-2-yl)-1-oxo-2-phenyl-1,2-dihydroisoquinolin-3-yl)ethyl)amino)pyrido[2,3-d]pyrimidin-5(8H)-one], the inhibition at 0.01 µM on DNA-PK(h) was 21%; in assay [1] it was 43%. The inhibition at 0.1 µM amounted to 67% at DNA-PK(h) (compound concentration 0.1 μM) and 91% in assay [1] (compound concentration 0.1 μM).

Take `C[C@H](Nc1ncnc2[nH]ccc(=O)c12)c1c(Br)c2cccc(-c3ccc(N(C)C)cc3)c2c(=O)n1-c1ccccc1` [Example 16, (S)-4-((1-(4-bromo-8-(4-(dimethylamino)phenyl)-1-oxo-2-phenyl-1,2-dihydroisoquinolin-3-yl)ethyl)amino)pyrido[2,3-d]pyrimidin-5(8H)-one]: the inhibition at 0.01 µM on DNA-PK(h) is 7%; in assay [1], 51%. Also, the values for the inhibition at 0.1 µM (on DNA-PK(h) (compound concentration 0.1 μM); in assay [1] (compound concentration 0.1 μM)) were 53% and 88%, respectively.

As to `C[C@H](Nc1ncnc2[nH]ccc(=O)c12)c1c(Cl)c2cccc(OCc3ccncc3)c2c(=O)n1-c1ccccc1` [Example 429, (S)-4-((1-(4-chloro-1-oxo-2-phenyl-8-(pyridin-4-ylmethoxy)-1,2-dihydroisoquinolin-3-yl)ethyl)amino)pyrido[2,3-d]pyrimidin-5(8H)-one], the inhibition at 0.1 µM was 63% on DNA-PK(h) (compound at 0.1 μM) and 47% in assay [1] (compound at 0.1 μM).

Consider `C[C@H](Nc1ncnc2[nH]ccc(=O)c12)c1c(Cl)c2cccc(-c3cnc(C#N)nc3)c2c(=O)n1-c1ccccc1` [Example 44, (S)-5-(4-chloro-1-oxo-3-(1-((5-oxo-5,8-dihydropyrido[2,3-d]pyrimidin-4-yl)amino)ethyl)-2-phenyl-1,2-dihydroisoquinolin-8-yl)pyrimidine-2-carbonitrile], for which the inhibition at 0.01 µM on DNA-PK(h) was 43%; in assay [1] it was 79%.

For `C[C@H](Nc1ncnc2[nH]ccc(=O)c12)c1c(Cl)c2cccc(-c3ncccn3)c2c(=O)n1-c1ccccc1` [Example 35, (S)-4-((1-(4-chloro-1-oxo-2-phenyl-8-(pyrimidin-2-yl)-1,2-dihydroisoquinolin-3-yl)ethyl)amino)pyrido[2,3-d]pyrimidin-5(8H)-one], the inhibition at 0.01 µM at DNA-PK(h) amounted to 7%; in assay [1], 21%.

As to `C[C@H](Nc1ncnc2[nH]ccc(=O)c12)c1c(Cl)c2cccc(-c3ccc(C(=O)O)nc3)c2c(=O)n1-c1ccccc1` [Example 47, (S)-5-(4-chloro-1-oxo-3-(1-((5-oxo-5,8-dihydropyrido[2,3-d]pyrimidin-4-yl)amino)ethyl)-2-phenyl-1,2-dihydroisoquinolin-8-yl)picolinic acid], the inhibition at 0.01 µM on DNA-PK(h) came out at 48%; in assay [1], 86%.

As for `COc1cc(-c2cccc3c(Cl)c([C@H](C)Nc4ncnc5[nH]ccc(=O)c45)n(-c4ccccc4)c(=O)c23)ccc1OC(F)(F)F` [Example 159, (S)-4-((1-(4-chloro-8-(3-methoxy-4-(trifluoromethoxy)phenyl)-1-oxo-2-phenyl-1,2-dihydroisoquinolin-3-yl)ethyl)amino)pyrido[2,3-d]pyrimidin-5(8H)-one], the inhibition at 0.01 µM at DNA-PK(h) is 19%; in assay [1], 28%.

On to `COc1cc(OC)cc(-c2cccc3c(Cl)c([C@H](C)Nc4ncnc5[nH]ccc(=O)c45)n(-c4ccccc4)c(=O)c23)c1` [Example 169, (S)-4-((1-(4-chloro-8-(3,5-dimethoxyphenyl)-1-oxo-2-phenyl-1,2-dihydroisoquinolin-3-yl)ethyl)amino)pyrido[2,3-d]pyrimidin-5(8H)-one], for which the inhibition at 0.01 µM is 67% at DNA-PK(h) and 40% in assay [1].

As to `CC(C)Nc1ncc(-c2cccc3c(Cl)c([C@H](C)Nc4ncnc5[nH]ccc(=O)c45)n(-c4ccccc4)c(=O)c23)cn1` [Example 220, (S)-4-((1-(4-chloro-8-(2-(isopropylamino)pyrimidin-5-yl)-1-oxo-2-phenyl-1,2-dihydroisoquinolin-3-yl)ethyl)amino)pyrido[2,3-d]pyrimidin-5(8H)-one], the inhibition at 0.01 µM worked out at 73% at DNA-PK(h) and 87% in assay [1].

As to `CCC[S@@](=N)(=O)c1cccc2c(Cl)c([C@H](C)Nc3ncnc4[nH]ccc(=O)c34)n(-c3ccccc3)c(=O)c12` [Example 408, 4-(((S)-1-(4-chloro-1-oxo-2-phenyl-8-((R)-propylsulfonimidoyl)-1,2-dihydroisoquinolin-3-yl)ethyl)amino)pyrido[2,3-d]pyrimidin-5(8H)-one], the inhibition at 0.1 µM turned out to be 28% on DNA-PK(h) (compound at 0.1 μM) and 71% in assay [1] (compound at 0.1 μM).

As for `C[C@H](Nc1ncnc2[nH]ccc(=O)c12)c1c(Cl)c2cccc(NCc3ccccc3)c2c(=O)n1-c1ccccc1` [Example 321, (S)-4-((1-(8-(benzylamino)-4-chloro-1-oxo-2-phenyl-1,2-dihydroisoquinolin-3-yl)ethyl)amino)pyrido[2,3-d]pyrimidin-5(8H)-one], the inhibition at 0.01 µM on DNA-PK(h) worked out at 10%; in assay [1], 22%. Besides, the inhibition at 0.1 µM came out at 34% on DNA-PK(h) (compound concentration 0.1 μM) and 68% in assay [1] (compound concentration 0.1 μM).
